The source of these data is patent US20120115852A1, “HETEROCYCLIC COMPOUNDS AS AUTOTAXIN INHIBITORS” (Merck Patent Gesellschaft Mit Beschrankter Haftung, priority 2009, published 2012).

Broadly, the IC50 is the concentration at which inhibition is half-maximal.

The assay deals with T1, recombinant autotaxin (Homo sapiens, UniProt Q13822).
T1 construct: made in house; host or cells: Hi5 insect cells (baculovirus)
The experiment in a line: Autotaxin test (enzyme test), Amplex Red fluorescence with LPC substrate. It is filed as biochemical. As to conditions: autotaxin inhibition (enzyme test); for remaining activity at 10 µM: 10 μM compound, read-out: % Control at 10 μM. Summed up: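 Activity was inferred from H2O2 made from released choline, detected as Amplex Red/peroxidase fluorescence (485 nm excitation, 612 nm emission, kinetic read). Beforehand, Hi5-expressed autotaxin sat with compound 30 min at 22° C, then hydrolysed 75 μM final LPC for 90 min at 37° C, pH 8 Tris buffer.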

Bounds are passed on as bounds.

As to `O=C1Nc2ccc(-c3ccc(Cl)cc3F)cc2C(=O)N2CCN(C(=O)[C@@H]3CCCN3C3CCNCC3)C[C@H]12` [Compound A117, (R)-7-(4-Chloro-2-fluorophenyl)-2-((S)-1-piperidin-4-ylpyrrolidine-2-carbonyl)-1,3,4,11a-tetrahydro-2H,10H-2,4a,10-triazadibenzo[a,d]cycloheptene-5,11-dione], the remaining activity at 10 µM amounted to 16% and the IC50 is above 1 µM.
The corresponding values for `CN1CCC(N2CCC[C@H]2C(=O)N2CCN3C(=O)c4cc(-c5ccc(Cl)cc5F)ccc4NC(=O)[C@H]3C2)CC1` [Compound A118, (R)-7-(4-Chloro-2-fluorophenyl)-2-[(S)-1-(1-methylpiperidin-4-yl)pyrrolidine-2-carbonyl]-1,3,4,11a-tetrahydro-2H,10H-2,4a,10-triaza-dibenzo[a,d]cycloheptene-5,11-dione] are 8% and 0.1 to 1 µM.
The corresponding values for `NCCN1CCC[C@H]1C(=O)N1CCN2C(=O)c3cc(-c4ccc(Cl)cc4F)ccc3NC(=O)[C@H]2C1` [Compound A119, (R)-2-[(S)-1-(2-Aminoethyl)pyrrolidine-2-carbonyl]-7-(4-chloro-2-fluorophenyl)-1,3,4,11a-tetrahydro-2H,10H-2,4a,10-triazadibenzo[a,d]cycloheptene-5,11-dione] are 45% and above 1 µM.
The corresponding values for `O=C1Nc2ccc(-c3ccc(Cl)cc3F)cc2C(=O)N2CCN(C(=O)[C@@H]3CCCN3C3CCOCC3)C[C@H]12` [Compound A120, (R)-7-(4-Chloro-2-fluorophenyl)-2-[(S)-1-(tetrahydro-pyran-4-yl)pyrrolidine-2-carbonyl]-1,3,4,11a-tetra-hydro-2H,10H-2,4a,10-triazadibenzo[a,d]-cycloheptene-5,11-dione] are 8% and 0.1 to 1 µM.
On to `O=C1Nc2ccc(-c3ccc(Cl)cc3F)cc2C(=O)N2CCN(C(=O)[C@@H]3CCCN3C3CCCCC3)C[C@H]12` [Compound A121, (R)-7-(4-Chloro-2-fluorophenyl)-2-((S)-1-cyclohexyl-pyrrolidine-2-carbonyl)-1,3,4,11a-tetrahydro-2H,10H-2,4a,10-triazadibenzo[a,d]cycloheptene-5,11-dione], for which the remaining activity at 10 µM turned out to be 32% and the IC50 was above 1 µM.
Turning to `N[C@@H](CO)C(=O)N1CCN2C(=O)c3cc(-c4ccc(Cl)cc4F)ccc3NC(=O)[C@H]2C1` [Compound A122, (R)-2-((S)-2-Amino-3-hydroxypropionyl)-7-(4-chloro-2-fluorophenyl)-1,3,4,11a-tetrahydro-2H,10H-2,4a,10-triazadibenzo[a,d]cycloheptene-5,11-dione], the remaining activity at 10 µM came out at 69%.
On to `O=C1Nc2ccc(-c3ccc(Cl)cc3F)cc2C(=O)N2CCN(C(=O)[C@@H]3CCCN3C3CCCNC3)C[C@H]12` (stereo partly drawn) [Compound A123, (R)-7-(4-Chloro-2-fluorophenyl)-2-((S)-1-piperidin-3-ylpyrrolidine-2-carbonyl)-1,3,4,11a-tetrahydro-2H,10H-2,4a,10-triazadibenzo[a,d]cycloheptene-5,11-dione], for which the remaining activity at 10 µM is 6% and the IC50 was in the range of 0.1 to 1 µM.
The matching figures for `COC[C@H](N)C(=O)N1CCN2C(=O)c3cc(-c4ccc(Cl)cc4F)ccc3NC(=O)[C@H]2C1` [Compound A124, (R)-2-((S)-2-Amino-3-methoxypropionyl)-7-(4-chloro-2-fluorophenyl)-1,3,4,11a-tetrahydro-2H,10H-2,4a,10-triazadibenzo[a,d]cycloheptene-5,11-dione]: 39% and above 1 µM.
The matching figures for `CC(C)(C)CC(=O)N1CCN2C(=O)c3cc(-c4ccc(Cl)cc4F)ccc3NC(=O)[C@@H]2C1` [Compound A125, (S)-7-(4-Chloro-2-fluorophenyl)-2-(3,3-dimethyl-butyryl)-1,3,4,11a-tetrahydro-2H,10H-2,4a,10-triazadibenzo[a,d]cycloheptene-5,11-dione]: 25% and above 1 µM.
As for `O=C1Nc2ccc(-c3ccc(Cl)cc3F)cc2C(=O)N2CCN(C(=O)[C@@H]3CCCN3C3CCNCC3)C[C@@H]12` [Compound A126, (S)-7-(4-Chloro-2-fluorophenyl)-2-((S)-1-piperidin-4-ylpyrrolidine-2-carbonyl)-1,3,4,11a-tetrahydro-2H,10H-2,4a,10-triazadibenzo[a,d]cycloheptene-5,11-dione], the remaining activity at 10 µM is 20% and the IC50 was above 1 µM.
The matching figures for `CC(C)(C)CC(=O)N1CCN2C(=O)c3cc(-c4ccc(Cl)nc4)ccc3NC(=O)C2C1` (stereo not drawn) [Compound A128, 7-(6-Chloropyridin-3-yl)-2-(3,3-dimethylbutyryl)-1,3,4,11a-tetrahydro-2H,10H-2,4a,10-triaza-dibenzo[a,d]cycloheptene-5,11-dione]: 42% and above 1 µM.
The matching figures for `CC(C)(C)CC(=O)N1CCN2C(=O)c3cc(-c4ccc(Cl)s4)ccc3NC(=O)C2C1` (stereo not drawn) [Compound A129, 7-(5-Chlorothiophen-2-yl)-2-(3,3-dimethylbutyryl)-1,3,4,11a-tetrahydro-2H,10H-2,4a,10-triaza-dibenzo[a,d]cycloheptene-5,11-dione]: 6% and above 1 µM.
The matching figures for `CC(C)(C)CC(=O)N1CCN2C(=O)c3cc(-c4ccc(F)cc4)ccc3NC(=O)C2C1` (stereo not drawn) [Compound A130, 2-(3,3-Dimethylbutyryl)-7-(4-fluorophenyl)-1,3,4,11a-tetrahydro-2H,10H-2,4a,10-triaza-dibenzo[a,d]cycloheptene-5,11-dione]: -1% and above 1 µM.
For the compound `CC(C)(C)CC(=O)N1CCN2C(=O)c3cc(-c4ccccc4)ccc3NC(=O)C2C1` (stereo not drawn) [Compound A131, 2-(3,3-Dimethylbutyryl)-7-phenyl-1,3,4,11a-tetrahydro-2H,10H-2,4a,10-triaza-dibenzo[a,d]cycloheptene-5,11-dione], the remaining activity at 10 µM came to 14% and the half-inhibitory concentration (IC50) is above 1 µM.
For `CC(C)(C)CC(=O)N1CCN2C(=O)c3cc(-c4ccc(C#N)cc4)ccc3NC(=O)C2C1` (stereo not drawn) [Compound A132, 4-[2-(3,3-Dimethylbutyryl)-5,11-dioxo-1,2,3,4,5,10,11,11a-octahydro-2,4a,10-triaza-dibenzo[a,d]cyclohepten-7-yl]benzonitrile], the remaining activity at 10 µM came to 84%.
Consider `CC(C)(C)CC(=O)N1CCN2C(=O)c3cc(OC(F)(F)F)ccc3NC(=O)C2C1` (stereo not drawn) [Compound A133, 2-(3,3-Dimethylbutyryl)-7-trifluoromethoxy-1,3,4,11a-tetrahydro-2H,10H-2,4a,10-triaza-dibenzo[a,d]cycloheptene-5,11-dione], for which the remaining activity at 10 µM came out at 27% and the IC50 was above 1 µM.
The corresponding values for `CN(C)CCN1C(=O)C2CN(C(=O)CC(C)(C)C)CCN2C(=O)c2cc(-c3ccc(Cl)cc3)ccc21` (stereo not drawn) [Compound A134, 7-(4-Chlorophenyl)-10-(2-dimethylaminoethyl)-2-(3,3-dimethylbutyryl)-1,3,4,11a-tetrahydro-2H,10H-2,4a,10-triazadibenzo[a,d]cycloheptene-5,11-dione] are -19% and above 1 µM.
The corresponding values for `COCCN1C(=O)C2CN(C(=O)CC(C)(C)C)CCN2C(=O)c2cc(-c3ccc(Cl)cc3)ccc21` (stereo not drawn) [Compound A135, 7-(4-Chlorophenyl)-2-(3,3-dimethylbutyryl)-10-(2-methoxyethyl)-1,3,4,11a-tetrahydro-2H,10H-2,4a,10-triazadibenzo[a,d]cycloheptene-5,11-dione] are -9% and above 1 µM.
In the case of `O=C1Nc2ccc(-c3ccc(Cl)cc3)cc2C(=O)N2CCN(C(=O)C(F)(F)F)CC12` (stereo not drawn) [Compound A136, 7-(4-Chlorophenyl)-2-(2,2,2-trifluoroacetyl)-1,3,4,11a-tetrahydro-2H,10H-2,4a,10-triazadibenzo-[a,d]cycloheptene-5,11-dione], the remaining activity at 10 µM is 63%.
On to `CC(C)(C)[C@H](N)C(=O)N1CCN2C(=O)c3cc(-c4ccc(Cl)cc4)ccc3NC(=O)C2C1` (stereo partly drawn) [Compound A137, 2-((S)-2-Amino-3,3-dimethylbutyryl)-7-(4-chloro-phenyl)-1,3,4,11a-tetrahydro-2H,10H-2,4a,10-triazadibenzo[a,d]cycloheptene-5,11-dione], for which the remaining activity at 10 µM is -18% and the IC50 is above 1 µM.
As to `CO[C@H](C(=O)N1CCN2C(=O)c3cc(-c4ccc(Cl)cc4)ccc3NC(=O)C2C1)C(C)(C)C` (stereo partly drawn) [Compound A138, 7-(4-Chlorophenyl)-2-((S)-2-methoxy-3,3-dimethyl-butyryl)-1,3,4,11a-tetrahydro-2H,10H-2,4a,10-triazadibenzo[a,d]cycloheptene-5,11-dione], the remaining activity at 10 µM was -21% and the IC50 was in the range of 0.1 to 1 µM.
With `CC(C)(C)CC(=O)N1CCN2C(=O)c3cc(-c4ccc(Cl)cc4)cnc3NC(=O)C2C1` (stereo not drawn) [Compound A139, 3-(4-Chlorophenyl)-8-(3,3-dimethylbutyryl)-7,8,9,9a-tetrahydro-6H,11H-1,5a,8,11-tetraazadibenzo-[a,d]cycloheptene-5,10-dione], the remaining activity at 10 µM was 45% and the concentration for half-maximal inhibition (IC50) is above 1 µM.
Turning to `C#Cc1ccc(-c2ccc3c(c2)C(=O)N2CCN(C(=O)CC(C)(C)C)CC2C(=O)N3)cc1` (stereo not drawn) [Compound A140, 2-(3,3-Dimethylbutyryl)-7-(4-ethynylphenyl)-1,3,4,11a-tetrahydro-2H,10H-2,4a,10-triaza-dibenzo[a,d]cycloheptene-5,11-dione], the remaining activity at 10 µM is -10% and the concentration for half-maximal inhibition (IC50) was above 1 µM.
The corresponding values for `CC1(C)SCNC1C(=O)N1CCN2C(=O)c3cc(-c4ccc(Cl)cc4)ccc3NC(=O)C2C1` (stereo not drawn) [Compound A141, 7-(4-Chlorophenyl)-2-(5,5-dimethylthiazolidine-4-carbonyl)-1,3,4,11a-tetrahydro-2H,10H-2,4a,10-triazadibenzo[a,d]cycloheptene-5,11-dione] are -21% and 0.1 to 1 µM.
